In patent US10709697B2, “Bis-amines, compositions, and uses related to CXCR4 inhibition” (Emory University, priority 2015, dated 2020):

What was measured:
[1] = tested on: CXCR4/CXCL12-mediated chemotaxis and invasion; assay: Matrigel invasion assay; assay type: cell-based; conditions: for Invasion Assay: Table 2; for inhibition at 0.1 µM: single concentration of 100 nM, CXCL12 as chemoattractant, FIG. 2, read-out: inhibitory rate, Matrigel invasion; for Invasion: Table 3, concentration used 100 nM
Source text: To model in vitro metastasis, a Matrigel® invasion assay was used as the functional assay. […] A layer of Matrigel® matrix-coated permeable support (8 μm pore diameter) separates the upper and lower chambers.

CXCR4 = molecular target: T1, CXCR4 (Homo sapiens, UniProt P61073); assay: Primary binding affinity screening (competition with biotinylated TN14003)
T1 construct: endogenous in cells; host or cells: MDA-MB-231
T1 sequence (P61073 whole entry): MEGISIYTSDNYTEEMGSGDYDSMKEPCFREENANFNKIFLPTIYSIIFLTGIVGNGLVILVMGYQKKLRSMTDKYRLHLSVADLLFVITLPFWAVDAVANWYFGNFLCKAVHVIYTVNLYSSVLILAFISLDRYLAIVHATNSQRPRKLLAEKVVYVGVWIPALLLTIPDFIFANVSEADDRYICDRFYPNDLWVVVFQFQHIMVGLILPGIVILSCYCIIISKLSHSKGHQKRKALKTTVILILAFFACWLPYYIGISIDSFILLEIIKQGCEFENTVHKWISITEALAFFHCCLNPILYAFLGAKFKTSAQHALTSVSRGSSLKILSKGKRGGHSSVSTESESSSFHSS
Description: The compounds were initially screened with a binding affinity assay. […] MDA-MB-231 cells were pre-incubated with compounds at concentrations of 1, 10, 100, and 1000 nM, then incubated with biotinylated TN14003 and streptavidin-conjugated rhodamine to determine the binding efficiency of the new compounds to the CXCL12 binding domain of CXCR4. […] Thus, this screening is a semi-quantitative, first pass measure of the level of activity.
For binding affinity assay, 2×10^4 MDA-MB-231 cells in 300 μL of cell culture medium were seeded in an 8-well slide chamber 2 days before the experiments were conducted. Various concentrations of different compounds (1, 10, 100, or 1000 nM) were added to the separate wells and incubated for 10 min at room temperature, and then the cells were fixed in 4% ice-cold paraformaldehyde. The cells were rehydrated in phosphate-buffered saline (PBS). The slides were subsequently incubated for 30 min at room temperature with 0.05 μg/mL biotinylated TN14003, washed three times with PBS, and incubated in streptavidin-rhodamine (1:150 dilution; Jackson ImmunoResearch Laboratories, West Grove, Pa.) for 30 min at room temperature. Finally, the slides were washed with PBS and mounted in an anti-fade mounting solution (Molecular Probes, Eugene, Oreg.), and the samples were analyzed on a Nikon Eclipse E800 microscope.

[2] = tested on: carrageenan-induced mouse paw edema; assay: In vivo suppression against carrageenan-induced paw edema; conditions: for inflammation-suppression percentage (paw edema): female C57BL/6J mice, 74 h after carrageenan challenge; for Carageenan: Table 3, mice dosed 10 mg of compound per kg
Description: CXCR4 plays a role in the recruitment of inflammatory cells to sites of inflammation. Blocking CXCR4 is a therapeutic strategy in inflammatory diseases. A carrageenan-induced mouse paw edema model as an efficient model to evaluate the in vivo CXCR4 antagonistic activity for CXCR4 inhibitors.
Acute inflammation was induced by subcutaneous injection of 50 μL of λ-carrageenan (1% w/v in saline) into one of the hind paws of the female C57BL/6J mice (Jackson Laboratories); the other hind paw was injected with 50 μL of saline, which was used as a non-inflammation control. The selected compounds were dissolved in 10% DMSO and 90% of 45% (2-hydroxypropyl)-β-cyclodextrin (CD) in PBS. In the treatment group, compounds IIg, IIk, IIm and IIn were administered intraperitoneally (i.p.) at 10 mg/kg daily, while TN14003 was administered at 300 μg/kg, i.p., daily, 30 min following carrageenan challenge. The rationale for using 300 μg/kg for TN14003 was that this concentration was reported to be the minimum concentration needed to achieve the maximum efficacy of this compound in a […] metastasis animal model. See Yoon et al. CXC chemokine receptor-4 antagonist blocks both growth of primary tumor and metastasis of head and neck cancer in xenograft mouse models. Cancer Res., 67 (2007), pp. 7518-7524. Control animals received corresponding i.p. injections of the vehicle. The animals were sacrificed 74 h after carrageenan challenge and 2 h after the last injection of the selected compounds. The final paws were photographed and measured for thickness from the “palm” to the back of the paw with a caliper. These were compared to the volume of carrageenan-untreated contralateral paw to obtain the edema volume; the volume of the contralateral paw was subtracted from the volume of the carrageenan injected paw to obtain the edema volume. The inflammation-suppression percentage was calculated by comparing the drug-treated group to the control group.

[3] = tested on: carrageenan-induced mouse paw edema; assay: as above; conditions: 10 mg/kg i.p. daily; paw tissue histology
[4] = effective concentration = lowest concentration with significant reduction of rhodamine fluorescence, MDA-MB-231 cells, tested at 1, 10, 100, 1000 nM

| Molecule | EC (CXCR4; [4]) | EC (CXCR4; Table 3) | inhibition at 0.1 µM [1] | Invasion [1] | further results |
| --- | --- | --- | --- | --- | --- |
| CCc1ccc(NCc2ccc(CNc3ccc(CC)cc3)nc2)cc1 [2,5-pyridine H 4-Et Phenyl, N′-(Pyridine-2,5-diylbis(methylene))bis(4-ethylaniline)] | – | – | – | – | Invasion Assay [1]: 64%; EC (CXCR4; Table 2): 1 nm |
| CCc1ccccc1NCc1cccc(CNc2ccccc2CC)n1 [2,6-Bis(2-ethylanilinomethyl)pyridine] | – | 1 nM | – | 59% | Carageenan [2]: 18.1% |
| COc1cccc(NCc2cccc(CNc3cccc(OC)c3)n2)c1 [2,6-Bis(3-methoxyanilinomethyl)pyridine] | – | 100 nM | – | 37% | Carageenan [2]: 20.1% |
| CCc1ccc(NCc2cccc(CNc3ccc(CC)cc3)n2)cc1 [2,6-Bis(4-ethylanilinomethyl)pyridine] | – | 1 nM | – | 64% | Carageenan [2]: 42.0% |
| c1cc(CN2CCOCC2)nc(CN2CCOCC2)c1 [2,6-Bis(morpholinylmethyl)pyridine] | – | 10 nM | – | 63% | Carageenan [2]: 39.1% |
| TN14003 [reference compound] | – | – | – | – | inflammation-suppression percentage (paw edema) ([2]; 300 μg/kg i.p. daily): 48% |
| Fc1cccc(NCc2ccc(CNc3cccc(F)c3)nc2)c1 [2,5-pyridine H 3-F Phenyl, N,N′-(Pyridine-2,5-diylbis(methylene))bis(3-fluoroaniline)] | – | – | – | – | Invasion Assay [1]: 50%; EC (CXCR4; Table 2): 10 nm |
| c1cc(CN2CCCNCCNCCCNCC2)ccc1CN1CCCNCCNCCCNCC1 [AMD3100, reference compound] | 1000 nM | 1000 nM | – | 62% | – |
| FC(F)(F)c1ccc(NCc2cccc(CNc3ccc(C(F)(F)F)cc3)n2)cc1 [2,6-Bis(4-trifluoromethylanilinomethyl)pyridine] | – | 1 nM | – | 52% | Carageenan [2]: 20.3% |
| Fc1cccc(NCc2cccc(CNc3cccc(F)c3)n2)c1 [2,6-Bis(3-fluoroanilinomethyl)pyridine] | – | 10 nM | – | 50% | Carageenan [2]: 20.3% |

Further lines, with some results ahead:

| EC (CXCR4; [4]) | EC (CXCR4; Table 3) | Molecule | inhibition at 0.1 µM [1] | Invasion [1] | further results |
| --- | --- | --- | --- | --- | --- |
| 1000 nM | – | CN(Cc1cccc(CN(C)c2ccc(F)cc2)n1)c1ccc(F)cc1 [IIe, N,N′-(Pyridine-2,6-diylbis(methylene))bis(4-fluoro-N-methylaniline)] | < 50% | – | – |
| 10 nM | – | c1cc(CN2CCCCC2)ccc1CN1CCCCC1 [Ib, 1,4-Bis(piperidin-1-ylmethyl)benzene] | < 50% | – | melting point: 84 to 86 °C |
| 10 nM | – | COc1cccc(CN(C)Cc2cccc(CN(C)Cc3cccc(OC)c3)n2)c1 [IIk, N,N′-(Pyridine-2,6-diylbis(methylene))bis(1-(3-methoxyphenyl)-N-methylmethanamine)] | 76.7% | – | inflammation-suppression percentage (paw edema) ([2]; 10 mg/kg i.p. daily): 31.0% |
| 1000 nM | – | CN(Cc1cccc(CN(C)c2ccccc2)n1)c1ccccc1 [IId, N,N′-(Pyridine-2,6-diylbis(methylene))bis(N-methylaniline)] | – | – | melting point: 91 to 93 °C |
| 10 nM | – | COc1cccc(CN(C)Cc2ccc(CN(C)Cc3cccc(OC)c3)cc2)c1 [Ik, N,N′-(1,4-Phenylenebis(methylene))bis(1-(3-methoxyphenyl)-N-methylmethanamine)] | < 50% | – | – |
| 1000 nM | – | CN(Cc1ccc(CN(C)c2ccccc2)cc1)c1ccccc1 [Id, N,N′-(1,4-Phenylenebis(methylene))bis(N-methylaniline)] | – | – | melting point: 77 to 79 °C |
| – | 10 nM | c1ccc(NCc2ccc(CNc3ccccn3)cc2)nc1 [WZ811, reference compound] | – | 90% | Carageenan [2]: 40% |
| 1 nM | – | c1ccc(CN(Cc2cccc(CN(Cc3ccccc3)CC3CC3)n2)CC2CC2)cc1 [IIm, N,N′-(Pyridine-2,6-diylbis(methylene))bis(N-benzyl-1-cyclopropylmethanamine)] | 100% | – | – |
| >1000 nM | – | CN(Cc1ccc(F)cc1)Cc1ccc(CN(C)Cc2ccc(F)cc2)cc1 [Ij, N,N′-(1,4-Phenylenebis(methylene))bis(1-(4-fluorophenyl)-N-methylmethanamine)] | – | – | melting point: 80 to 82 °C |
| 100 nM | – | c1cc(CN2CCOCC2)nc(CN2CCOCC2)c1 [IIc, 2,6-Bis(morpholinomethyl)pyridine] | 68.9% | – | – |
| 10 nM | – | CN(Cc1ccccn1)Cc1cccc(CN(C)Cc2ccccn2)n1 [IIn, N,N′-(Pyridine-2,6-diylbis(methylene))bis(N-methyl-1-(pyridin-2-yl)methanamine)] | 72.6% | – | inflammation-suppression percentage (paw edema) ([2]; 10 mg/kg i.p. daily): 50%; mouse paw inflammation and damage in histological assay [3]: significantly attenuated |
| >1000 nM | – | c1cc(CN2CCOCC2)ccc1CN1CCOCC1 [Ic, 1,4-Bis(morpholinomethyl)benzene] | – | – | melting point: 113 to 115 °C |
| 1 nM | – | c1cc(CN2CCCCC2)nc(CN2CCCCC2)c1 [IIb, 2,6-Bis(piperidin-1-ylmethyl)pyridine] | 65.3% | – | – |
| 100 nM | – | CN(Cc1ccc(CN(C)c2ccc(F)cc2)cc1)c1ccc(F)cc1 [Ie, N,N′-(1,4-phenylenebis(methylene))bis(4-fluoro-N-methylaniline)] | 66.4% | – | melting point: 78 to 80 °C |
| – | 1 nM | Cc1cccc(NCc2ccc(CNc3cccc(C)c3)nc2)c1 [N,N′-(Pyridine-2,5-diylbis(methylene))bis(3-methylaniline)] | – | 58% | Invasion Assay [1]: 60.2%; EC (CXCR4; Table 2): 100 nm |
| 10 nM | – | CN(Cc1cccc(Cl)c1)Cc1cccc(CN(C)Cc2cccc(Cl)c2)n1 [IIg, N,N′-(Pyridine-2,6-diylbis(methylene))bis(1-(3-chlorophenyl)-N-methylmethanamine)] | 88.6% | – | – |
